Experimental data as given in patent US11807620B2, “Quinazolinone compounds and related compounds” (PLEXIUM, INC., priority 2020, dated 2023).

Legend:
cereblon (NanoLuc-CRBN) = biological target: T1, cereblon (NanoLuc-CRBN) (Homo sapiens, UniProt Q96SW2); assay: NanoBRET CRBN Cellular Target Engagement Assay; type: binding; conditions: compound tested at 10 μM, HEK293T cells transfected with NanoLuc-CRBN, 2 hr incubation; for remaining activity at 10 µM: lower = higher affinity, read-out: % tracer bound At the end of assay; for inhibition at 10 µM: read-out: % tracer removed From CBLN
T1 construct: host or cells: HEK293T
Source text: The following example measures the extent to which a test compound of this invention binds to cereblon. In this example, a commercially available cereblon binding test kit (Promega Corporation, Madison, Wis., USA) was used but adapted to a 384 well format.
The kit comprises a tracer that binds to cereblon to form a tracer-cereblon complex. This complex is reversible. Upon addition of the test compound, competition between the tracer and the test compound for the binding site(s) on cereblon occurs. The extent of tracer release from cereblon correlates to the affinity of test compound to bind to cereblon. The higher the affinity, the more tracer is released from cereblon.
The assay is a homogenous cell-based assay that used bioluminescence resonance energy transfer (BRET) to measure cereblon target compound binding which causes loss of BRET. Lower BRET values correlate to higher loss of tracer bound to cereblon and, accordingly, higher the levels of target compound binding to cereblon.
The specifics of the assay include HEK293T cells were transfected with a NanoLuc-CRBN expression plasmid using Fugene as described. Approximately 24 hr later, transfected cells were washed with 1× Phosphate Buffered Saline (PBS) and harvested using trypsin. Cells were resuspended in Opti-MEM (available from Thermo Fisher Scientific) at a concentration of 2×10^5 cells/mL. A ratio of 1 part 100× Tracer to 4 parts NanoBRET Tracer Dilution Buffer was used to make a 20× Tracer stock. Next, 40 μl cells per well containing 1× tracer was dispensed into 384 well white tissue culture treated plates. Compounds were then dispensed using a D330e Digital Dispenser (Tecan Trading AG) and plates were allowed to incubate for 2 hr at 37° C., 5% CO2. Immediately prior to BRET measurements, a 3× Complete NanoBret Nano-Glo Substrate stock in Opti-MEM was prepared and 20 μl per well of substrate was subsequently added to the assay plates. Following a 2-3 minute incubation at room temperature, donor (450 nm) and acceptor (610 nm) emission values were read on a CLARIOStar multimode plate reader (BMG) in luminescence mode. Data were converted to milliBRET units by dividing acceptor emission values by donor emission and multiplying by 1000. […]

IKZF1 (Ikaros) = biological target: T2, IKZF1 (Ikaros) (Homo sapiens, UniProt Q13422+Q96SW2); assay: Stable cell line fluorescent reporter degradation assay, IKZF1; type: cell-based; conditions: HEK 293T IKZF1-mNeonGreen reporter cells, 24 hour incubation, calculated visually from the curves; for Dmax at 10 µM: 10 micromolar
T2 construct: mScarlet (C, cleaved yes); expressed in transfected cells
Source text: (§1) Polycistronic plasmids were constructed for the mammalian expression of fluorescent reporter fusions of human transcription factors IKZF1 (Ikaros) and IKZF3 (Aiolos). The respective protein sequences had their C-terminal end joined to a GGGGS linker repeated three times followed by mNeonGreen, P2A sequence, and mScarlet. IKZF1 expression was driven by a CMV promoter while IKZF3 was EF1α promoter driven. The plasmids contained the HygR resistance gene for positive selection of cells with genomic integration of the reporter constructs. The plasmids were transfected using cationic lipid reagents into adherent HEK 293T cells and stable integrants were selected by treatment with 200 ug/mL hygromycin B. Clonal populations were obtained from the population of stable integrants either by limiting dilution or fluorescence activated cell sorting. The clonal stable cell lines were maintained under constant 200 ug/mL hygromycin B selection while being passaged for use in the degradation assays. The fluorescence intensity of the IKZF1/2/3-mNeonGreen (FITC channel) and mScarlet (PE channel) reporters were routinely analyzed by flow cytometry to confirm consistent expression levels between experiments.
(§2) Representative compounds were evaluated for their ability to degrade IKZF1 and IKZF3 in the following assay.
(§3) The IKZF1/IKZF3 degradation assays were carried out by harvesting the HEK 293T reporter cell lines and resuspending the cells in media formulated for reduced background fluorescence. The respective cell lines were seeded at a density of 4,000 cells/well into black-walled 384-well optical grade assay plates pre-coated by the manufacturer with PDL. The cells were incubated overnight to allow for attachment to the assay plate (37° C. with humidified air and 5% CO2 for all incubations). Dilutions of the compounds were prepared in dimethyl sulfoxide (DMSO) from 10 mM compound stock solutions in DMSO. The assay plates were treated with appropriate concentrations of the compounds by dispensing the DMSO dilutions in quadruplicate wells with an upper limit of 0.5% final DMSO.
(§4) After a 24 hour incubation with the compounds, the assay plates were imaged on an ImageXpress Pico microscopy system (cells maintained at 37° C. during imaging) to obtain the fluorescent readouts. The assay plates were imaged in the FITC and TRITC channels to obtain the mNeonGreen fluorescence intensity (reporter degradation data) and mScarlet fluorescence intensity (for cell segmentation), respectively. 293T-IKZF1 and 293T-IKZF3 reporter cell lines were imaged with exposures of 500 milliseconds (ms) for both FITC and TRITC channels. The resulting data was analyzed with Cell Reporter Xpress software using the 2-channel cell scoring analysis with a “percent positive” readout. The TRITC channel was selected for the “nuclei” segmentation with a threshold of 20 while the FITC channel was selected for the “Marker 1” segmentation and a threshold of 100 for the IKZF1 and IKZF3 reporter lines. The minimum segmentation width was set to 6 micrometers and the maximum segmentation width was set to 15 micrometers for all cell lines.
(§5) The percent degradation amounts were calculated visually from the curves generated at a concentration of 10 micromolar.

IKZF3 (Aiolos) = biological target: T3, IKZF3 (Aiolos) (Homo sapiens, UniProt Q96SW2+Q9UKT9); assay: Stable cell line fluorescent reporter degradation assay, IKZF3; type: cell-based; conditions: HEK 293T IKZF3-mNeonGreen reporter cells, 24 hour incubation, calculated visually from the curves; for Dmax at 10 µM: 10 micromolar
T3 construct: mScarlet (C, cleaved yes); expressed in transfected cells
Source text: as §1, §2, §3, §4, §5

T2 sequence (Q13422 whole entry): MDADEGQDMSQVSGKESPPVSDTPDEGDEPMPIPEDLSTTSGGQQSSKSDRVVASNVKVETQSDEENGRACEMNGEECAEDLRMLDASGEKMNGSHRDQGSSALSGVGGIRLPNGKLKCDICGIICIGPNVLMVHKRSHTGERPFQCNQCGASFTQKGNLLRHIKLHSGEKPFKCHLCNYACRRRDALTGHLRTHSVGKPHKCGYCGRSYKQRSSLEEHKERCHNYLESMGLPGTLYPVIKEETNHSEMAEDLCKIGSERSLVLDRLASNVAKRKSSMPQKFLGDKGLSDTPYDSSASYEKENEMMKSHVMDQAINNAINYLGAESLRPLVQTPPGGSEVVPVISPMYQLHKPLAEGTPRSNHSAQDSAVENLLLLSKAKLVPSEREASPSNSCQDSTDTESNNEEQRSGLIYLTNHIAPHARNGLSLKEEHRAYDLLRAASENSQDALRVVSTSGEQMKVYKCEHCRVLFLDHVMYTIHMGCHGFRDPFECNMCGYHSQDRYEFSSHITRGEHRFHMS
T2 sequence (Q96SW2 whole entry): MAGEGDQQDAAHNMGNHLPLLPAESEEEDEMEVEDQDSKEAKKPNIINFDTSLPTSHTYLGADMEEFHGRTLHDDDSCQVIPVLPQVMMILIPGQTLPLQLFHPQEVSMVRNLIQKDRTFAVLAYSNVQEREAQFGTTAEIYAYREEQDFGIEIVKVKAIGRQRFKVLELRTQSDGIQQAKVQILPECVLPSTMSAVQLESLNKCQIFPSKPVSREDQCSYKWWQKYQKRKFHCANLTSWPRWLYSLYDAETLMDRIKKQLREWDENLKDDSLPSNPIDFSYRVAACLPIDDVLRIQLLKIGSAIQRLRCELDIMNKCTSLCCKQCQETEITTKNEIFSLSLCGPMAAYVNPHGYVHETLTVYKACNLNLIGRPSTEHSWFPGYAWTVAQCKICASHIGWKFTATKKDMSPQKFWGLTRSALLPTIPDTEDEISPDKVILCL
T2 sequence (Q16531 whole entry partner): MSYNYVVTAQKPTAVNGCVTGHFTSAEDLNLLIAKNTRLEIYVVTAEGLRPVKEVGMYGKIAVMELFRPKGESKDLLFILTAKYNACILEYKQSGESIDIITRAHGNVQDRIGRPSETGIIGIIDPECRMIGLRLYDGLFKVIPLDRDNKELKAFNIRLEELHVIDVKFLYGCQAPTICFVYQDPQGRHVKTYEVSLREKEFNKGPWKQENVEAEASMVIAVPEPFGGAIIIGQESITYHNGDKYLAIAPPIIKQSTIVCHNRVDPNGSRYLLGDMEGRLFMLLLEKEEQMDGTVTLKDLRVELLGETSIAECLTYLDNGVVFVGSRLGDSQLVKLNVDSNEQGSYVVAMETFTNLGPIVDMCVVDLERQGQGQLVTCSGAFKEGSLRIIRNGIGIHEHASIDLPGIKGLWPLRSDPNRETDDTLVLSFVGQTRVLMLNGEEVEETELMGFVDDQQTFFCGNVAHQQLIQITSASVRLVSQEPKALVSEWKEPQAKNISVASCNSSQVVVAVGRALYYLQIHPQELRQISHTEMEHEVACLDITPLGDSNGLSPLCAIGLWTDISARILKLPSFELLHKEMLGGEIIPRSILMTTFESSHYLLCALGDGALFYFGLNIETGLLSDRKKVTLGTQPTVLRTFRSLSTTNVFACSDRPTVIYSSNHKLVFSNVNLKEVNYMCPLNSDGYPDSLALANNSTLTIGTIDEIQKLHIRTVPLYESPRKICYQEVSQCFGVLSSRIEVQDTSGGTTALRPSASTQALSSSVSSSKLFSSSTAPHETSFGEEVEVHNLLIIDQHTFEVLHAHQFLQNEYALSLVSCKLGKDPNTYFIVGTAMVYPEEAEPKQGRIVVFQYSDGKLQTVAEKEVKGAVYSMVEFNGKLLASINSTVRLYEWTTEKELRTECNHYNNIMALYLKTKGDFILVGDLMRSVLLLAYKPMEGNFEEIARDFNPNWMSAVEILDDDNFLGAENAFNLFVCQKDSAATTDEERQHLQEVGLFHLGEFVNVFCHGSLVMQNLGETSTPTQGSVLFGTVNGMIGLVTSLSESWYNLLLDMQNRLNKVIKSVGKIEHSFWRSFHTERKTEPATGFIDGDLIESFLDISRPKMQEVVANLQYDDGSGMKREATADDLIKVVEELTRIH
T1 sequence (Q96SW2 whole entry): as the sequence (Q96SW2 whole entry) above
T3 sequence (Q9UKT9 whole entry): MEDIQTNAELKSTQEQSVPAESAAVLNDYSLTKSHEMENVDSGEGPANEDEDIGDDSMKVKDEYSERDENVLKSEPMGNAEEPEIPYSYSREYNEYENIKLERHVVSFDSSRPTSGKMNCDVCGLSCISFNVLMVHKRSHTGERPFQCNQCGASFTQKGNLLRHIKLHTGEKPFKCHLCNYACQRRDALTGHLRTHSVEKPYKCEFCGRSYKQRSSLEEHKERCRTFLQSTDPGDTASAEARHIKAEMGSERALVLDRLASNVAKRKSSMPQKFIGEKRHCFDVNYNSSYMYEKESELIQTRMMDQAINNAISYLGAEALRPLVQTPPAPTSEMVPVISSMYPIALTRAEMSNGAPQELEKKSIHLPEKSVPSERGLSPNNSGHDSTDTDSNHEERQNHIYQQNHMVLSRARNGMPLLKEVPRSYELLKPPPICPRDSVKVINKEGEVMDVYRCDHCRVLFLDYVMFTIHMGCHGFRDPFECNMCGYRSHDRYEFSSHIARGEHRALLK
T3 sequence (Q96SW2 whole entry): as the sequence (Q96SW2 whole entry) above
T3 sequence (Q16531 whole entry partner): as the sequence (Q16531 whole entry partner) above

remaining activity at 10 µM (cereblon (NanoLuc-CRBN)) | inhibition at 10 µM (cereblon (NanoLuc-CRBN)) | SMILES | other results
47.4% | 52.6% | COc1ccccc1CNc1cccc2nc(C)n(C3CCC(=O)NC3=O)c(=O)c12 (stereo not shown) [Example 2, 3-(5-((2-methoxybenzyl)amino)-2-methyl-4-oxoquinazolin-3(4H)-yl)piperidine-2,6-dione] | 
27.3% | 72.7% | COc1cccc(CNc2cccc3nc(C)n(C4CCC(=O)NC4=O)c(=O)c23)c1 (stereo not shown) [Example 3, 3-(5-((3-methoxybenzyl)amino)-2-methyl-4-oxoquinazolin-3(4H)-yl)piperidine-2,6-dione] | 
26.6% | 73.4% | Cc1nc2cccc(NCc3ccccc3F)c2c(=O)n1C1CCC(=O)NC1=O (stereo not shown) [Example 6, 3-(5-((2-fluorobenzyl)amino)-2-methyl-4-oxoquinazolin-3(4H)-yl)piperidine-2,6-dione] | 
47.7% | 52.3% | Cc1ccc(CNc2cccc3nc(C)n(C4CCC(=O)NC4=O)c(=O)c23)cc1 (stereo not shown) [Example 8, 3-(2-methyl-5-((4-methylbenzyl)amino)-4-oxoquinazolin-3(4H)-yl)piperidine-2,6-dione] | 
30.2% | 69.8% | Cc1nc2cccc(NCc3ccccc3Cl)c2c(=O)n1C1CCC(=O)NC1=O (stereo not shown) [Example 9, 3-(5-((2-chlorobenzyl)-amino)-2-methyl-4-oxoquinazolin-3(4H)-yl)piperidine-2,6-dione] | 
20.2% | 79.8% | Cc1nc2cccc(NCc3cccc(Cl)c3)c2c(=O)n1C1CCC(=O)NC1=O (stereo not shown) [Example 10, 3-(5-((3-chlorobenzyl)-amino)-2-methyl-4-oxoquinazolin-3(4H)-yl)piperidine-2,6-dione] | 
30.2% | 69.8% | Cc1ccccc1CNc1cccc2nc(C)n(C3CCC(=O)NC3=O)c(=O)c12 (stereo not shown) [Example 11, 3-(5-((2-methylbenzyl)-amino)-2-methyl-4-oxoquinazolin-3(4H)-yl)piperidine-2,6-dione] | 
0% | 100% | COc1ccc(CNc2cccc3nc(C)n(C4CCC(=O)NC4=O)c(=O)c23)cc1OC (stereo not shown) [Example 12, 3-(5-((3,4-dimethoxy-benzyl)-amino)-2-methyl-4-oxoquinazolin-3(4H)-yl)piperidine-2,6-dione] | 
16% | 84% | Cc1nc2cccc(NCc3ccccc3C#N)c2c(=O)n1C1CCC(=O)NC1=O (stereo not shown) [Example 13, 3-(5-((2-cyanobenzyl)-amino)-2-methyl-4-oxoquinazolin-3(4H)-yl)piperidine-2,6-dione] | 
11.5% | 88.5% | Cc1nc2cccc(NCc3ccc(C#N)cc3)c2c(=O)n1C1CCC(=O)NC1=O (stereo not shown) [Example 14, 3-(5-((4-cyanobenzyl)-amino)-2-methyl-4-oxoquinazolin-3(4H)-yl)piperidine-2,6-dione] | 
23.9% | 76.1% | Cc1nc2cccc(NCc3ccc(C(F)(F)F)cc3)c2c(=O)n1C1CCC(=O)NC1=O (stereo not shown) [Example 15, 3-(5-((4-trifluoromethyl-benzyl)-amino)-2-methyl-4-oxoquinazolin-3(4H)-yl)piperidine-2,6-dione] | 
20.9% | 79.1% | COc1cc(CNc2cccc3nc(C)n(C4CCC(=O)NC4=O)c(=O)c23)cc(OC)c1 (stereo not shown) [Example 16, 3-(5-((3,5-dimethoxy-benzyl)-amino)-2-methyl-4-oxoquinazolin-3(4H)-yl)piperidine-2,6-dione] | 
34.8% | 65.2% | COc1ccc(CNc2cccc3nc(C)n(C4CCC(=O)NC4=O)c(=O)c23)c(OC)c1 (stereo not shown) [Example 17, 3-(5-((2,4-dimethoxy-benzyl)-amino)-2-methyl-4-oxoquinazolin-3(4H)-yl)piperidine-2,6-dione] | 
21.3% | 78.7% | Cc1nc2cccc(NCc3c(Cl)cccc3Cl)c2c(=O)n1C1CCC(=O)NC1=O (stereo not shown) [Example 18, 3-(5-((2,6-dichlorobenzyl)-amino)-2-methyl-4-oxoquinazolin-3(4H)-yl)piperidine-2,6-dione] | 
29.7% | 71.3% | COc1ccc(OC)c(CNc2cccc3nnn(C4CCC(=O)NC4=O)c(=O)c23)c1 (stereo not shown) [Example 19, 3-(5-((2,5-dimethoxybenzyl)amino)-4-oxobenzo[d][1,2,3]triazin-3(4H)-yl)piperidine-2,6-dione] | 
12.1% | 87.9% | Cc1nc2cccc(NCc3cc(Cl)ccc3Cl)c2c(=O)n1C1CCC(=O)NC1=O (stereo not shown) [Example 20, 3-(5-((2,5-dichlorobenzyl)amino)-2-methyl-4-oxoquinazolin-3(4H)-yl)piperidine-2,6-dione] | 
9.9% | 90.1% | Cc1nc2cccc(NCc3ccc(CO)cc3)c2c(=O)n1C1CCC(=O)NC1=O (stereo not shown) [Example 21, 3-(5-((4-(hydroxymethyl)benzyl)amino)-2-methyl-4-oxoquinazolin-3(4H)-yl)piperidine-2,6-dione] | 
 |  | Cc1nc2cccc(NCc3ccc(CN4CC(N5CCOCC5)C4)cc3F)c2c(=O)n1C1CCC(=O)NC1=O (stereo not shown) [Example 96, 3-(5-((2-fluoro-4-((3-morpholinoazetidin-1-yl)methyl)benzyl)amino)-2-methyl-4-oxoquinazolin-3(4H)-yl)piperidine-2,6-dione] | % Degradation IKZF1 @ 10 micromolar (IKZF1 (Ikaros)): 92.6%; % Degradation IKZF3 @ 10 micromolar (IKZF3 (Aiolos)): 92.6%
 |  | Cc1nc2cccc(NCc3ccc(CN4CCOCC4)cc3)c2c(=O)n1C1CCC(=O)NC1=O (stereo not shown) [compound 32, 3-(2-methyl-5-((4-(morpholinomethyl)benzyl)amino)-4-oxoquinazolin-3(4H)-yl)piperidine-2,6-dione] | Dmax at 10 µM (IKZF1 (Ikaros)): 93.8%; Dmax at 10 µM (IKZF3 (Aiolos)): 91.9%
 |  | Cc1nc2cccc(NCc3cccc(CN4CCN(c5ccc(C#N)cc5F)CC4)c3)c2c(=O)n1C1CCC(=O)NC1=O (stereo not shown) [compound 33, 4-(4-(3-(((3-(2,6-dioxopiperidin-3-yl)-2-methyl-4-oxo-3,4-dihydroquinazolin-5-yl)amino)methyl)benzyl)piperazin-1-yl)-3-fluorobenzonitrile] | Dmax at 10 µM (IKZF1 (Ikaros)): 95.5%; Dmax at 10 µM (IKZF3 (Aiolos)): 87.4%
